We go through 6 substances from patent US20160067674A1, “LIGANDS AND METHODS FOR ISOLATING OR REMOVING PROTEINS” (PreviPharma AG, priority 2014, published 2016).

Starred links: 1 amine or outer side, 2 acyl side, 3 side chain; linkers in the order of their positions; H or OH if unused. No end group written: not given here. *: point of attachment. code X = linker with the sequence GSGSGSG, O=C(CNC(=O)[C@H](CO)NC(=O)CN[*:1])N[C@@H](CO)C(=O)NCC(=O)N[C@@H](CO)C(=O)NCC(=O)[*:2]; Biotin = O=C1N[C@H]2[C@H](CS[C@H]2CCCCC(=O)*)N1

In experiment [1] the test system is factor V or factor VIII. Briefly: Peptide array of Protein C sequence, binding affinity towards factor V or factor VIII. Conditions: compared with sequences i) to iii). The source says:
(§1) In this manner, the sequences of Protein A, Protein G, Protein H and FcRn were investigated for peptides binding to IgG. In addition, the sequence of Protein C was investigated for peptides binding to factor V and factor VIII.

The target of experiment [2] is factor VIII (Homo sapiens, UniProt P00451). Briefly: Peptide array of Protein C sequence for peptides binding to factor VIII.
Description: as §1

In experiment [3] the target is factor V (Homo sapiens, UniProt P12259). Description: Peptide array of Protein C sequence for peptides binding to factor V.
Description: as §1

Experiment [4] deals with IgG. Description: IgG binding to and release from peptide-modified streptavidin latex particles, bound and eluted IgG analysed by ELISA. A general note: An ELISA detects its analyte on a solid surface through an enzyme-linked reagent.
Description: Subsequently, it was evaluated whether IgG can be bound to and released from the thus prepared modified latex. For this purpose, 10 mg of the modified latex particles were mixed with 400 μl of an IgG solution containing 0.22 mg/ml IgG. After allowing the mixture to react at room temperature for one hour, the supernatant solution was removed from the latex beads and the beads were washed to remove any non-bound IgG. The beads were then evaluated for bound IgG.
In the next step, the beads were added to 400 μl of an elution buffer (25 mM acetate buffer at pH 3.0) and shaken for one hour at room temperature. The supernatant was then removed from the beads and the beads were cleaned by washing. Both the bound and eluted IgG was an analysed by an ELISA assay.

Sequence of factor VIII (P00451 20-2351, species assumed): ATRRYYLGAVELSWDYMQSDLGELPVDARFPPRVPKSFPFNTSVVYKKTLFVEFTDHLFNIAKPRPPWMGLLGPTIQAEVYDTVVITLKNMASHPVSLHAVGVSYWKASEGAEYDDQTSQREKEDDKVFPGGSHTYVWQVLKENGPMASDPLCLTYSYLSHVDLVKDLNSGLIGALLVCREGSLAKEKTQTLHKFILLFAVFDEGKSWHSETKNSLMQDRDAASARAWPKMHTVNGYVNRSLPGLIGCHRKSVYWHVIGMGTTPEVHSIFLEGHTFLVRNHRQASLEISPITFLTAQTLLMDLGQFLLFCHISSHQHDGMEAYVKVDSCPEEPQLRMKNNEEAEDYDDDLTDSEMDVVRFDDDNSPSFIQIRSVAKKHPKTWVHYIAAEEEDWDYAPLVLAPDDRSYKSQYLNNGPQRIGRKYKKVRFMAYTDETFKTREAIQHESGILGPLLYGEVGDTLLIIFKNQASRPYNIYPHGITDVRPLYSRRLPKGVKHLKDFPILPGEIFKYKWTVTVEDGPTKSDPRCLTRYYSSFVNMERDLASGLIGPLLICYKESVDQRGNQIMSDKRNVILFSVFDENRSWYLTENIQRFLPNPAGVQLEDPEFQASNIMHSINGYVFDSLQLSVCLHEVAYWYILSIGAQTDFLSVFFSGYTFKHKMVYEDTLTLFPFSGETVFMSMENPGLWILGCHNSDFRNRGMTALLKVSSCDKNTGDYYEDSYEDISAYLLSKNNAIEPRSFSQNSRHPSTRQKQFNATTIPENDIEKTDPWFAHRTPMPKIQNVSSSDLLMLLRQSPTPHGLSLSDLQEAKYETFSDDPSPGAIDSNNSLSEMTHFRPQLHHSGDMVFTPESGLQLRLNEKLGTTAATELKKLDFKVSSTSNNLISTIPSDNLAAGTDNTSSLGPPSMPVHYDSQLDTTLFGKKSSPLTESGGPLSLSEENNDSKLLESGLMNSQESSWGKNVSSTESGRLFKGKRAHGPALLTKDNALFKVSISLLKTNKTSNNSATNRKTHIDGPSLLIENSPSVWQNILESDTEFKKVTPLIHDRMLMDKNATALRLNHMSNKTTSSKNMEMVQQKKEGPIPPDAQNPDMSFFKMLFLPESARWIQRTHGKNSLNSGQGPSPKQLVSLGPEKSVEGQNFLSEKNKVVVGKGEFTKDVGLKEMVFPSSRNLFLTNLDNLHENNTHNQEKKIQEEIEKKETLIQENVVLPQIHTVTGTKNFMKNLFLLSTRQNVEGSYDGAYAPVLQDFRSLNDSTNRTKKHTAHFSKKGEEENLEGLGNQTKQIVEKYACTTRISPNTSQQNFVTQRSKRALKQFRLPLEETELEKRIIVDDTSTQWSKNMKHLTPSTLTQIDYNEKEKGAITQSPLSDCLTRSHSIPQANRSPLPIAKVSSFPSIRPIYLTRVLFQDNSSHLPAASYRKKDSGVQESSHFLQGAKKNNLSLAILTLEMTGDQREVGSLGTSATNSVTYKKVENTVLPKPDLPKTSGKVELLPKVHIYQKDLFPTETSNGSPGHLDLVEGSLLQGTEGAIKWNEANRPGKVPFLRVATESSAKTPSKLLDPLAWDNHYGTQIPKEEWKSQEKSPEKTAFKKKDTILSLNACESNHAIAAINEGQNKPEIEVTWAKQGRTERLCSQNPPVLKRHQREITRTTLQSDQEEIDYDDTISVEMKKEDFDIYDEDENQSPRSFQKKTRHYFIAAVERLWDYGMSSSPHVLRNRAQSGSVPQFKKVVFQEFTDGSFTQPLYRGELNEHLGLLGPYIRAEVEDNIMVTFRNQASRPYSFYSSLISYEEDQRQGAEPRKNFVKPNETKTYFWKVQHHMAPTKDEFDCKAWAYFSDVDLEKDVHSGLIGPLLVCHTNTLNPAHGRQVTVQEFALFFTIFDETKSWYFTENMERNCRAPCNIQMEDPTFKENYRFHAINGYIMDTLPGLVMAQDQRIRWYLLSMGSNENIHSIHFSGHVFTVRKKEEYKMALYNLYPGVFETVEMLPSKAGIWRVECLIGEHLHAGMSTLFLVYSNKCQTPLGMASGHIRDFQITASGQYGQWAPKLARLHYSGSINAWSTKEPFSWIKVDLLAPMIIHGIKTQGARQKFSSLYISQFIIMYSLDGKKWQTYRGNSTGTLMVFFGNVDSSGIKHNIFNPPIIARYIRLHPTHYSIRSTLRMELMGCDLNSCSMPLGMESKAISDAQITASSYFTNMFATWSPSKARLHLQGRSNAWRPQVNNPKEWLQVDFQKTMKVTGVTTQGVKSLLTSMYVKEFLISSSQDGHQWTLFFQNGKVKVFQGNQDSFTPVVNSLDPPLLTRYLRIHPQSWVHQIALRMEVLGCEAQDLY
Sequence of factor V (P12259 29-2224): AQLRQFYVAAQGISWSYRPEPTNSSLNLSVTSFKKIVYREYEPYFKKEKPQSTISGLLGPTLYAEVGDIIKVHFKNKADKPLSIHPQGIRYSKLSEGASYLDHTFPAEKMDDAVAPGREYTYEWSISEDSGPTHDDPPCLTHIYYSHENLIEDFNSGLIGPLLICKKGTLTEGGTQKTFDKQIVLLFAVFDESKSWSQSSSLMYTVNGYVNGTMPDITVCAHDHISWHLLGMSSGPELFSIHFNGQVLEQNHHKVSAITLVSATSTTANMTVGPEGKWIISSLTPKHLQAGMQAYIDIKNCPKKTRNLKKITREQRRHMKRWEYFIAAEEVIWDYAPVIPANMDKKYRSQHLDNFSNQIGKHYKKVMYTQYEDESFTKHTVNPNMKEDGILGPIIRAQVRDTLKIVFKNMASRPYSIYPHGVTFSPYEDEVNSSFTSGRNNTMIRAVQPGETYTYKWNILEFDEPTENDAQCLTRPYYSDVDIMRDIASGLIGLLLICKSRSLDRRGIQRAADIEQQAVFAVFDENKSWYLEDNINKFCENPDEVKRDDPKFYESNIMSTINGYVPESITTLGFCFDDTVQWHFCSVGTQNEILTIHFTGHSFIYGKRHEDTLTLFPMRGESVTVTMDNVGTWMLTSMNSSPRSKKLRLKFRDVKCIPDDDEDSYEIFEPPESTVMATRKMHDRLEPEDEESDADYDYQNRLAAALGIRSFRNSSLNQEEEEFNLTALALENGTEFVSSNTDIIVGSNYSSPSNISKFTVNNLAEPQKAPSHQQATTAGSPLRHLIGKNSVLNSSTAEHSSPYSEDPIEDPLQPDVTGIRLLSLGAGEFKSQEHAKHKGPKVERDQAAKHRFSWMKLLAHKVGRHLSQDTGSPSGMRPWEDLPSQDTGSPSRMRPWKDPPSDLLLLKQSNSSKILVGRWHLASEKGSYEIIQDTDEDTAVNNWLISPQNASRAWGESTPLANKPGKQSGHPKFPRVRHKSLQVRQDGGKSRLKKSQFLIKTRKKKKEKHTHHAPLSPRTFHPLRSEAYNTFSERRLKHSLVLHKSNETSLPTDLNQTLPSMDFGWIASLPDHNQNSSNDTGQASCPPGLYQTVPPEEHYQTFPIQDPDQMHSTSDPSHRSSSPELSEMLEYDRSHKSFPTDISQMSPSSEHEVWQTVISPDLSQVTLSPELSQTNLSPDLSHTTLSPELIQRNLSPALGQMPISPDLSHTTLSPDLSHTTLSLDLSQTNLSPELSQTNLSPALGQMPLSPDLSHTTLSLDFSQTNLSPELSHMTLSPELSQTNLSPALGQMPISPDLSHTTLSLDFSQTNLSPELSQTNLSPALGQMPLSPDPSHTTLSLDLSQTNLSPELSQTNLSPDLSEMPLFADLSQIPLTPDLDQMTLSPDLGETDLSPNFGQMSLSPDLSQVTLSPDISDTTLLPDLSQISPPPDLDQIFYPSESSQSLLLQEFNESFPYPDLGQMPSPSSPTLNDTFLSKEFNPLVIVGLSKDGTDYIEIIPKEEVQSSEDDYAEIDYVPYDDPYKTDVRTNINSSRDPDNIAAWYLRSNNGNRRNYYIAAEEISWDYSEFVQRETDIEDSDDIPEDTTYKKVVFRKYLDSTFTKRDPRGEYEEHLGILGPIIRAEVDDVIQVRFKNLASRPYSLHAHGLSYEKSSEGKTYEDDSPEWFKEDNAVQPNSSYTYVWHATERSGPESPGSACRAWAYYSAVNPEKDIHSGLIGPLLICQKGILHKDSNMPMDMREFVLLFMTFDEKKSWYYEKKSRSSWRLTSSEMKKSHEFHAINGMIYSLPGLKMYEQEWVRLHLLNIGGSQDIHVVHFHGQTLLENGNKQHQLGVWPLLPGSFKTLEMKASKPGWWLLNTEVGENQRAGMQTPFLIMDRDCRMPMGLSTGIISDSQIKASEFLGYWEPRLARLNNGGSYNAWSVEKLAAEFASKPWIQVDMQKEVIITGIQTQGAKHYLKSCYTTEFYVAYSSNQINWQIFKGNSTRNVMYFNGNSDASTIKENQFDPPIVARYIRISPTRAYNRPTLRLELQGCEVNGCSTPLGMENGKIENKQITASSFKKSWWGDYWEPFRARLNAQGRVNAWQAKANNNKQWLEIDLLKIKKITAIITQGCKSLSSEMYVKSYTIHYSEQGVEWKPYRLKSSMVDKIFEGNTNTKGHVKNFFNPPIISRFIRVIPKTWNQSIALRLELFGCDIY

In the case of FVHPNYSKSTTDNDIALLH [iv)], in experiment [1], the “binding affinity towards factor V or factor VIII” value is recorded as “weaker”.

In the case of GDSGGPMVASFHG, in experiment [2] (versus factor V), the “selectivity for factor VIII” value was “high selectivity”. In addition, the “binding to factor V” value in experiment [3] was “not significantly bind”.

On to HNYGVYTKVSRYL, for which the “binding to factor VIII” value in experiment [2] was “not significantly binding”.

On to LEGYDLRRWEKWE, for which the “binding to factor VIII” value in experiment [2] is recorded as “binds equally strong”. The “binding to factor V” value in experiment [3] is “binds equally strong”.

For the substance TGWGYHSSREKEA [v)], the “binding affinity towards factor V or factor VIII” value in experiment [1] is given as “weaker”.

In experiment [4] (10 mg peptide-modified latex, 400 μl of 0.22 mg/ml IgG, 1 h room temperature), “bio-X-QQQLITIKQISEASRKSLSRD ({Biotin-code X}-QQQLITIKQISEASRKSLSRD) [Peptide 2, biotin-labelled peptide; bio = biotin, X = linker GSGSGSG]” displayed an IgG bound of 55 µg. Besides, the “IgG Elution” value in experiment [4] (400 μl 25 mM acetate buffer pH 3.0, 1 h room temperature) is 52 µg. Also, the “Recovery [IgG]” value in experiment [4] (eluted relative to bound IgG) is recorded as 95%.
